Measured values as given in patent publication US20240336617A1, “Substituted Bimane Compounds and Methods of Use Thereof” (THE TRUSTEES OF THE UNIVERSITY OF PENNSYLVANIA, priority 2023, published 2024).

How the values were obtained:
[1] = Molar absorptivity determination; format: physicochemical;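 further: molar absorptivity derived from UV-Vis absorbance spectra recorded for each derivative on a spectrometer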
Method: The absorbance spectrum of each derivative (150 μL) was measured on a Thermo Scientific Genesys 150 UV-Vis spectrometer, using 50:50 ACN/PBS as a blank.
Molar absorptivity determination. […] The absorbance spectrum of each derivative (150 μL) was measured on a Thermo Scientific Genesys 150 UV-Vis spectrometer, using 50:50 ACN/PBS as a blank.

[2] = Fluorescent quantum yield (QY) measurements; format: physicochemical; details: for Fluorescence QY: ACN/PBS buffer (1:1 v/v); for Fluorescence quantum yield: in ACN
Method: For each QY measurement, the incident excitation light spectrum was collected with 1 mL of solvent. […] Using the JASCO Quantum Yield Software, the dye QY was calculated by dividing the dye fluorescence intensity by the difference in incident light intensity in the presence and absence of dye. The minimum excitation wavelength for a full excitation incident spectrum using this setup is 360 nm.
Fluorescent quantum yield (QY) measurements. For each QY measurement, the incident excitation light spectrum was collected with 1 mL of solvent. After measuring the incident light intensity, dye (3 and 5a-5k) was added to the solvent from a concentrated stock solution to a final concentration of […] and the new spectrum (fluorescence intensity and new incident light intensity) was collected. Using the JASCO Quantum Yield Software, the dye QY was calculated by dividing the dye fluorescence intensity by the difference in incident light intensity in the presence and absence of dye. The minimum excitation wavelength for a full excitation incident spectrum using this setup is 360 nm.

[3] = Absorbance measurements (UV-Vis); details: for Absorbance Wavelength: ACN:PBS buffer (50:50 v/v); for Abs. λabs: 25 μM
Method: Samples were individually diluted to the final concentration of 25 μM (500 μL) using 50:50 acetonitrile in phosphate buffered saline (ACN/PBS). The absorbance spectrum of each derivative (150 μL) was measured on a Thermo Scientific Genesys 150 UV-Vis spectrometer, using 50:50 ACN/PBS as a blank.

[4] = Fluorescence (emission) measurements; format: physicochemical;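 further: fluorescence emission spectra recorded on a spectrofluorometer, with each compound excited at its own absorption maximum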
Method: The fluorescence spectrum of each derivative (150 μL) was measured on a Photon Technology International (PTI) QuantaMaster™ 40 fluorescence spectrometer by excitation at the maximum absorption wavelength for each compound.
The fluorescence spectrum of each derivative (150 μL) was measured on a Photon Technology International (PTJ) QuantaMaster™ 40 fluorescence spectrometer by excitation at the maximum absorption wavelength for each compound.

[5] = Fluorescence lifetime measurements (TCSPC); format: physicochemical; details: for Fluorescence Lifetime: ACN/PBS buffer (1:1 v/v); for Lifetime: ACN/PBS buffer (50:50 v/v), excitation 340 nm
Method: Time correlated single photon counting (TCSPC) measurements of fluorescence lifetime decays for 100 μM solutions of dyes (6, 7c, 7e, 7f, and 7g) in ACN/PBS buffer (50:50 v/v) were collected with the PTI Quantamaster™ 40 using a pulsed LED with a maximum emission at 340 nm. Fluorescence emission was collected at the indicated wavelength for each dye with 20 nm slit widths. The instrument response function (IRF) was collected under identical conditions. Data analysis was performed with FluoFit software (PicoQuant GmbH; Berlin, Germany) using an exponential decay model.
Fluorescence lifetime measurements. Time correlated single photon counting (TCSPC) measurements of fluorescence lifetime decays for 100 μM solutions of dyes (3 and 5c-f) in ACN/PBS buffer (50:50 v/v) were collected with the PTI Quantamaster™ 40 using a pulsed LED with a maximum emission at 340 nm. Fluorescence emission was collected at the indicated wavelength for each dye with 20 nm slit widths. The instrument response function ([…]) was collected under identical conditions. Data analysis was performed with FluoFit software (PicoQuant GmbH; Berlin, Germany) using an exponential decay model. […] FIG. 64D Fluorescence spectra of 5i-5k. […] Fluorescence spectra were measured at their maximum absorption wavelength. FIGS. 66A-66K show representative QY acquisitions of 3 and 5a-f, 5h-k in ACN/PBS buffer (50:50). All had consistent excitation (360 nm) and spectral collection (350-800 nm) parameters. Final concentration of the probe is 500 μM. Black line indicates incident light and blue line indicates sample spectrum. […] All had consistent excitation (360 nm, slit width 10 nm) and spectral collection (350-800 nm) parameters. Final concentration of the probe is 500 µM. Black line indicates incident light and blue line indicates sample spectrum. FIG. 68: Effect of pH on absorption and emission of 5h and 5j. […] For pH screening of 5h and 5j, PBS buffer solutions were prepared, then adjusted the pH 2, 4, and 7 by adding 6 M hydrochloric acid, pH 9 and 11 by adding 5 M sodium hydroxide. Emission spectra were measured by the excitation wavelength 354 nm for 5h and 385 nm for 5j. […] Lifetime measurements with exponential fits shown at left and residuals after fitting shown at right.

[6] = ACN/PBS buffer (1:1 v/v), pH 7.4
[7] = in ACN, at maximum absorption wavelength
[8] = 25 μM in ACN/PBS buffer (1:1 v/v), pH 7.4

Row | Molar Absorptivity (ε) [1, 6] [M⁻¹ cm⁻¹] | Molar Absorptivity (ε) [1, 7] [M⁻¹ cm⁻¹] | Fluorescence QY [2] [%] | Fluorescence quantum yield [2] [%] | Fluorescence quantum yield ([2]; Table S12) [%] | Absorbance λmax ([3]; 25 μM in ACN) [nm] | Absorbance λmax [3, 8] [nm] | Absorbance Wavelength ([3]; Table 11) [nm] | Absorbance Wavelength ([3]; Table S14) [nm] | Emission λmax [4, 8] [nm] | Stokes shift ([4]; ACN/PBS buffer (1:1 v/v)) [nm] | Stokes shift ([4]; in ACN) [nm] | ε ([1]; ACN only) [M⁻¹ cm⁻¹] | ε ([1]; ACN:PBS (50:50 v/v)) [M⁻¹ cm⁻¹] | Q.Y. ([2]; ACN only) [%] | Q.Y. ([2]; ACN:PBS (50:50 v/v)) [%] | Abs. λabs ([3]; ACN only) [nm] | Abs. λabs ([3]; ACN:PBS (50:50 v/v)) [nm] | Stokes shift ([4]; ACN only) [nm] | Stokes shift ([4]; ACN:PBS (50:50 v/v)) [nm] | other results | Compound
1 | 36955 | 37871 | 0.1 | 0.2 | 0.2 | 332 | 335 | 335 | 335 | 468 | 133 | 100 |  |  |  |  |  |  |  |  | fluorescence quantum yield (QY) ([2]; in ACN/PBS): essentially non-fluorescent; λabs ([3]; ACN/PBS): 335 nm; Emission λmax ([4]; 25 μM in ACN): 432 nm; Emission λem ([4]; 25 μM in ACN, Table S12): 432 nm | Cc1c(C)n2c(/C=C/c3ccc([N+](=O)[O-])cc3)c(C)c(=O)n2c1=O [Compound 7a, (E)-2,3,6-trimethyl-5-(4-nitrostyryl)-1H,7H-pyrazolo[1,2-a]pyrazole-1,7-dione]
2 | 23796 | 28940 | 2.5 | 2.8 | 2.8 | 315 | 321 | 321 | 321 | 502 | 181 | 177 |  |  |  |  |  |  |  |  | Fluorescence Lifetime [5]: 1.07 ns; Lifetime ([5]; Table 4): 1.07 ± 0.003 ns; Lifetime ([5]; Table S13): 1.07 ± 0.003 ns | Cc1c(C)n2c(/C=C/c3ccc(F)cc3)c(C)c(=O)n2c1=O [Compound 7c, (E)-3-(4-fluorostyryl)-2,5,6-trimethyl-1H,7H-pyrazolo[1,2-a]pyrazole-1,7-dione]
3 | 27699 | 36055 | 1.3 | 1.5 |  | 339 | 350 |  |  | 502 | 152 | 101 |  |  |  |  |  |  |  |  |  | Cc1c(C)n2c(/C=C/c3ccc(N=[N+]=[N-])cc3)c(C)c(=O)n2c1=O [Compound 7d, (E)-3-(4-azidostyryl)-2,5,6-trimethyl-1H,7H-pyrazolo[1,2-a]pyrazole-1,7-dione]
4 | 21164 | 24426 | 3.0 | 3.4 | 3.4 | 325 | 332 | 332 | 332 | 503 | 171 | 165 |  |  |  |  |  |  |  |  | Fluorescence Lifetime [5]: 1.28 ns; Lifetime ([5]; Table 4): 1.28 ± 0.004 ns; Lifetime ([5]; Table S13): 1.28 ± 0.004 ns | Cc1ccc(/C=C/c2c(C)c(=O)n3c(=O)c(C)c(C)n23)cc1 [Compound 7f, (E)-2,3,6-trimethyl-5-(4-methylstyryl)-1H,7H-pyrazolo[1,2-a]pyrazole-1,7-dione]
5 | 25659 | 34554 | 3.3 | 3.5 | 3.5 | 342 | 348 |  | 348 | 504 | 156 | 146 |  |  |  |  |  |  |  |  | Fluorescence Lifetime [5]: 1.31 ns; Lifetime ([5]; Table 4): 1.31 ± 0.004 ns; Lifetime ([5]; Table S13): 1.31 ± 0.004 ns | COc1ccc(/C=C/c2c(C)c(=O)n3c(=O)c(C)c(C)n23)cc1 [Compound 7g, (E)-3-(4-methoxystyryl)-2,5,6-trimethyl-1H,7H-pyrazolo[1,2-a]pyrazole-1,7-dione]
6 | 34826 | 37555 | 3.4 | 3.4 | 3.4 | 348 | 356 | 354 |  | 505 | 149 | 142 |  |  |  |  |  |  |  |  | maximum emission wavelength (λem) ([4]; 50:50 ACN/PBS, excitation at λabs): 583 nm | Cc1c(C)n2c(/C=C/c3ccc(NC(=O)OC(C)(C)C)cc3)c(C)c(=O)n2c1=O [Compound 7i, tert-butyl (E)-(4-(2-(2,5,6-trimethyl-1,7-dioxo-1H,7H-pyrazolo[1,2-a]pyrazol-3-yl)vinyl)phenyl)carbamate]
7 |  |  |  |  |  |  |  |  |  |  |  |  | 26667 | 27587 | 0.1 | 0.06 | 346 | 349 | 229 | 99 | Em. λem ([4]; ACN:PBS (50:50 v/v), 25 μM): 448 nm | Cc1c(C)n2c(/C=C/c3nc4ccc([N+](=O)[O-])cc4s3)c(C)c(=O)n2c1=O [Compound 8a, (E)-2,3,6-trimethyl-5-(2-(6-nitrobenzo[d]thiazol-2-yl)vinyl)-1H,7H-pyrazolo[1,2-a]pyrazole-1,7-dione]
8 |  |  |  |  |  |  |  |  |  |  |  |  | 32612 | 31088 | 0.56 | 0.21 | 340 | 345 | 192 | 185 |  | Cc1c(C)n2c(/C=C/c3nc4ccc(F)cc4s3)c(C)c(=O)n2c1=O [Compound 8b, (E)-3-(2-(6-fluorobenzo[d]thiazol-2-yl)vinyl)-2,5,6-trimethyl-1H,7H-pyrazolo[1,2-a]pyrazole-1,7-dione]
9 |  |  |  |  |  |  |  |  |  |  |  |  | 29974 | 29304 | 0.4 | 0.16 | 339 | 344 | 195 | 192 |  | Cc1c(C)n2c(/C=C/c3nc4ccccc4s3)c(C)c(=O)n2c1=O [Compound 8c, (E)-3-(2-(benzo[d]thiazol-2-yl)vinyl)-2,5,6-trimethyl-1H,7H-pyrazolo[1,2-a]pyrazole-1,7-dione]
10 |  |  |  |  |  |  |  |  |  |  |  |  | 22961 | 22575 | 0.54 | 0.27 | 367 | 373 | 163 | 157 |  | COc1ccc2nc(/C=C/c3c(C)c(=O)n4c(=O)c(C)c(C)n34)sc2c1 [Compound 8d, (E)-3-(2-(6-methoxybenzo[d]thiazol-2-yl)vinyl)-2,5,6-trimethyl-1H,7H-pyrazolo[1,2-a]pyrazole-1,7-dione]
11 |  |  |  |  |  |  |  |  |  |  |  |  | 21094 | 20460 | 0.52 | 0.26 | 369 | 375 | 162 | 159 |  | Cc1c(C)n2c(/C=C/c3nc4ccc(O)cc4s3)c(C)c(=O)n2c1=O [Compound 8e, (E)-3-(2-(6-hydroxybenzo[d]thiazol-2-yl)vinyl)-2,5,6-trimethyl-1H,7H-pyrazolo[1,2-a]pyrazole-1,7-dione]
